From US4080467A, “Pharmaceutical compositions comprising 1,3-dithiolan-2-ylidene malonate derivatives” (Nihon Nohyaku Co., Ltd., priority 1976, dated 1978)

How the values were obtained:
fatty liver (ethionine) = assay: Effect on fatty liver (ethionine model); format: in vivo, male mice (4 week-old, dd-strain); conditions: diet plus 0.2% ethionine and 0.2% compound, 5 days
Excerpt: There are known many factors inducing fatty liver. But, the fatty liver is grouped into a couple of patterns from the mechanism of lipid accumulation or metabolism of lipoprotein in the liver. Ethionine is a typical compound inducing fatty liver. It inhibits RNA and protein syntheses and destructs polysome of the liver cell. Fatty liver is induced by the inhibition of protein synthesis and the disturbance of lipoprotein secretion.
Usually, fatty liver is closely related to the accumulation of triglyceride in the liver. In the present example, the degree of fatty liver and protective or therapeutic effect against the fatty liver was evaluted by measurement of triglyceride content in the liver.
The animals used in the test were 4 week-old male mice (dd-strain).
The mice were submitted for 5 days to a normal diet (control), to the normal diet plus 0.2% ethionine (positive control), to the normal diet plus 0.2% ethionine and 0.2% of the compound of this invention, or to the normal diet plus 0.2% ethionine and 0.2% methionine which was the referential diet. At the end of the period of 5 days, content of triglyceride in the liver was studied colorimetrically by chromotropic acid method and the result was represented as triolein content (mg/g-liver).

[1] = system: fatty liver (carbon tetrachloride); assay: Therapeutic effect on fatty liver (carbon tetrachloride model); format: in vivo, male rat (35 week-old, SD strain); conditions: for Degree of fatty liver (histopathological examination): 10 days, one symbol per animal
Procedure: Carbon tetrachloride also induces fatty liver, but the picture of disease differs from the case of ethionine-induced fatty liver. Carbon tetrachloride is generally considered to damage microsome and thereby to inhibit protein synthesis and induce fatty liver.
Carbon tetrachloride was subscutaneously administered to 35 week-old male rat (SD strain) for 4 days at the dose of 1 ml/kg. The treated animals were left for 3 days after the last administration to maximize the manifestation of fatty liver.
Administration of the compounds of this invention was commenced on the fourth day after the administration of carbon tetrachloride was completed. It was orally given everyday for 10 days at the dose of 50 or 250 mg/kg. On the 11th day, the animals were sacrificed. The therapeutic effect was evaluated by determining the content of lipid in the liver (triglyceride and total lipid) and examining the histopathological changes. Triglyceride and total lipid were determined colorimetrically by chromotropic acid method and Bragdon's oxidation method, respectively.
Indices for the histopathological change is as follows.

[2] = Acute oral toxicity to male mice (LD50); conditions: mouse, in vivo
[3] = system: acute liver damage associated with discrete lobular necrosis (D-galactosamine); assay: Protective effect on acute hepatitis with mesenchymal reaction and discrete lobular necrosis (D-galactosamine model); format: in vivo, male rat (SD strain); conditions: 100 mg/kg oral 6 h before D-galactosamine
Procedure: D-Galactosamine is a compound which induces a discrete lobular necrosis associated with mesenchymal reaction similar to the change observed in human viral hepatitis, so that it is frequently used in producing a model for viral hepatitis.
The compound of this invention or anethol trithion was administered orally to the male rat (SD strain) at the dose of 100 mg/kg. Six hours after it, D-galacetosamine was intraperitoneally administered at the dose of 600 mg/kg. Four hours after it, an additional 300 mg/kg was administered intraperitoneally. Eight hours after it, the animals were sacrificed to collect the blood samples. P-GPT activity and triglyceride in the liver were measured to evaluate the effect of the compound of this invention.

[4] = Effect on concentration of ethyl alcohol in the blood; format: in vivo, mice; conditions: 250 mg/kg oral 6 h before ethyl alcohol 1,000 mg/kg
Procedure: The test compounds are dissolved or suspended in olive oil and administered orally at the dose of 250 mg/kg to the mice. After 6 hours, 1,000 mg/kg of ethyl alcohol was given orally. Blood was taken in a capillary from caudal vein at the time indicated in the results. The plasma was obtained by centrifugation. The concentration of ethyl alcohol in the plasma was measured by FID type gas liquid chromatography. Five mice were used for each group.

[5] = system: cirrhosis (carbon tetrachloride); assay: Therapeutic effect on cirrhosis (carbon tetrachloride); format: in vivo, male rat (4 week-old SD-strain); conditions: for Degree of cirrhosis (histopathological examination): 2000 ppm diet, one symbol per animal; for p-GOT activity / p-GPT activity: diet containing 2000 ppm
Procedure: The therapeutic effect of the compound of this invention on cirrhosis, which had been caused by carbon tetrachloride administration, was examined.
A 10% solution of carbon tetrachloride in olive oil was administered to the male rat (4 week-old SD-strain) intraperitoneally at the dose of 0.5 ml carbon tetrachloride/kg twice a week for a period of 10 weeks, to induce cirrhosis. Four days after the final administration of carbon tetrachloride, the formation of pseudo-lobulus was confirmed. Then the diseased animals were divided into two groups. Therapeutic group was submitted a diet containing 2000 ppm of Compound 4, while the positive control group was submitted a normal diet. Control group, to which olive oil alone had been administered, was submitted a normal diet.
At 1, 2, 4 and 8 weeks after beginning of Compound 4 feeding, 5 animals from each group were sacrificed, and the therapeutic effect on cirrhosis was evaluated by examining plasma transaminase activity (p-GPT and p-GOT, Reitman-Frankel method) and observing histopathological changes.
Degree of cirrhosis in the histopathological examination was graded as follows: […]

[6] = 50 mg/kg oral everyday for 10 days
[7] = 250 mg/kg oral everyday for 10 days

CC(C)OC(=O)C(C(=O)OC(C)C)=C1SCCS1 [Compound 4, Diisopropyl 1,3-dithiolan-2-yliden malonate]
Triglyceride (content in the liver, as triolein) (fatty liver (ethionine)): 10.4 ± 1.6 mg/g
Total lipid [1, 6]: 107.6 ± 12.3 mg/g-liver
Triglyceride [1, 6]: 42.3 ± 6.3 mg/g-liver
Degree of fatty liver (histopathological examination) ([1]; 50 mg/kg oral): ± ± and ± ± ± + ±
Total lipid [1, 7]: 72.3 ± 9.6 mg/g-liver
Triglyceride [1, 7]: 23.6 ± 3.8 mg/g-liver
Degree of fatty liver (histopathological examination) ([1]; 250 mg/kg oral): - - ± ± - ±
LD50 [2]: 1350 mg/kg
Triglyceride in liver [3]: 4.6 ± 0.73 mg/g
p-GPT [3]: 63±23 Karmen unit
Concentration of Ethyl alcohol in Plasma ([4]; 0 min): 9±4 ppm
Concentration of Ethyl alcohol in Plasma ([4]; 5 min): 727±84 ppm
Concentration of Ethyl alcohol in Plasma ([4]; 15 min): 715±146 ppm
Concentration of Ethyl alcohol in Plasma ([4]; 30 min): 430±105 ppm
Concentration of Ethyl alcohol in Plasma ([4]; 60 min): 13±11 ppm
Degree of cirrhosis (histopathological examination) ([5]; 1 week): + +++ + ++ +++
Degree of cirrhosis (histopathological examination) ([5]; 2 weeks): ++ ±
Degree of cirrhosis (histopathological examination) ([5]; 8 weeks): + ± and +++ ±
p-GOT activity ([5]; 1 week): 277±135 Karmen unit
p-GPT activity ([5]; 1 week): 81.6±25.9 Karmen unit
p-GOT activity ([5]; 2 weeks): 96.8±2.6 Karmen unit
p-GPT activity ([5]; 2 weeks): 28.8±3.0 Karmen unit
p-GOT activity ([5]; 4 weeks): 64.0±5.5 Karmen unit
p-GPT activity ([5]; 4 weeks): 40.6±3.8 Karmen unit
p-GOT activity ([5]; 8 weeks): 91.8±7.2 Karmen unit
p-GPT activity ([5]; 8 weeks): 32.8±6.1 Karmen unit
